Measured values as given in patent US20230348453A1, “HALOGENATED-HETEROARYL AND OTHER HETEROCYCLIC KINASE INHIBITORS, AND USES THEREOF” (iOmx Therapeutics AG, priority 2020, published 2023).
pIC50: −log10 of the molar value.

Legend:
in vitro [1] = conditions: human, microsomes
SIK3 = SIK3 (Homo sapiens (Human), UniProt Q9Y2K2); conditions: read-out: SIK3 IC50
[2] = Human plasma-protein binding; conditions: Table 5A
[3] = microsomes
[4] = microsomes; remark: listed apart in the source
in vitro [5] = conditions: mouse, microsomes
[6] = Murine plasma protein binding; conditions: Table 5A

Cc1nc(Nc2ncc(C(=O)Nc3c(C)nn(C)c3C)s2)cc(N2CCN(CCO)CC2)n1 [Compound C8, 2-((6-(4-(2-hydroxyethyl)piperazin-1-yl)-2-methylpyrimidin-4-yl)amino)-N-(1,3,5-trimethyl-1H-pyrazol-4-yl)thiazole-5-carboxamide]
half-life (in vitro [1]): > 1.67 h
pIC50 (SIK3): 5.01
Human plasma-protein binding, Percentage unbound (%) [2]: 5%
Kinetic solubility: 189 µM
Mouse liver microsomal stability, Intrinsic clearance (L/min/mg) [3]: < 14 µL/min/mg
Human liver microsomal stability, Intrinsic clearance [4]: < 14 µL/min/mg
half-life (in vitro [5]): > 1.67 h
Murine plasma protein binding, Percentage unbound (%) [6]: 62%
